Assay results from BindingDB's records for doi:10.1002/cbic.200900750 (University of Toronto, 2010).

Target: T1, Alpha-mannosidase 2 (Drosophila melanogaster, UniProt Q24451)
T1 sequence (Q24451 whole entry): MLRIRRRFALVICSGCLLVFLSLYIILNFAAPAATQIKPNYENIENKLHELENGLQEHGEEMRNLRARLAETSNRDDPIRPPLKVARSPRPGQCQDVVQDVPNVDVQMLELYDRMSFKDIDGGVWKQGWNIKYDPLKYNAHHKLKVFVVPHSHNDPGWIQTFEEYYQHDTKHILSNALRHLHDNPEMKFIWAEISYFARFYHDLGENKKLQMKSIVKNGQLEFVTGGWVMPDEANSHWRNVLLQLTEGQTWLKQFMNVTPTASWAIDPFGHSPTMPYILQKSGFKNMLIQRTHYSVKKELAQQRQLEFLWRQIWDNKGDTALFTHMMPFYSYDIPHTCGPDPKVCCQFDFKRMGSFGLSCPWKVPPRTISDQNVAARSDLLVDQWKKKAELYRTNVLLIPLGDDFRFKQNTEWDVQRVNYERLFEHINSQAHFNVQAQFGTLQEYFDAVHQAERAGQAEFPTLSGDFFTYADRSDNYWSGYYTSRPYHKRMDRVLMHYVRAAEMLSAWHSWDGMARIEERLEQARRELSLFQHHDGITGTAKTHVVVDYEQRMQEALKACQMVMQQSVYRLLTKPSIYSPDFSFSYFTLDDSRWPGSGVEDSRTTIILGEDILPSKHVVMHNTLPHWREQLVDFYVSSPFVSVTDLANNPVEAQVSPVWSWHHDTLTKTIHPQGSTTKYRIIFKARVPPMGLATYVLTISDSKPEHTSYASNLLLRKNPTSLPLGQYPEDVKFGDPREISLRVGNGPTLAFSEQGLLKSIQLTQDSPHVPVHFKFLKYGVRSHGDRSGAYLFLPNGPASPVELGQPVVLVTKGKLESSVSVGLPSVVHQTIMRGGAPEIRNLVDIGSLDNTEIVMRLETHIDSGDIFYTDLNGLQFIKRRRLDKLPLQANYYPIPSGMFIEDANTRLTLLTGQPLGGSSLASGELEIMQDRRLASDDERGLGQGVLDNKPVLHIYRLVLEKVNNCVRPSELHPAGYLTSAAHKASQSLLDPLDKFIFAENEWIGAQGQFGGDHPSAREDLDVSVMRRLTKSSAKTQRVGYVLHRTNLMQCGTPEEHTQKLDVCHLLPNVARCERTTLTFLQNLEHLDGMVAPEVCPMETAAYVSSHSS
Assay: Inhibition Assay
Settings: pH 5.75; 25 °C

Structure (SMILES) | IC50 | Ki
O[C@H]1[C@H]2[C@H](O)CCCN2C[C@H]1O [(-)-swainsonine] | 0.037 µM | 0.003 µM
O=C(C[C@H]1CC[C@@H](O)C2[C@H](O)[C@H](O)CN21)c1ccccc1 (stereo not given in full) [Swainsonine derivative, 2] | 0.03 µM | 
CC(C)(C)c1ccc(C(=O)C[C@H]2CC[C@@H](O)C3[C@H](O)[C@H](O)CN32)cc1 (stereo not given in full) [Swainsonine derivative, 4] | 0.029 µM | 
Cc1ccc(C(=O)C[C@H]2CC[C@@H](O)C3[C@H](O)[C@H](O)CN32)cc1 (stereo not given in full) [Swainsonine derivative, 3] | 0.029 µM | 
